Data on 24 compounds can be found in US20150376172A1, “FLUORO-[1,3]OXAZINES AS BACE1 INHIBITORS” (HOFFMANN-LA ROCHE INC., priority 2013, published 2015).

T1 sequence (P56817 46-501): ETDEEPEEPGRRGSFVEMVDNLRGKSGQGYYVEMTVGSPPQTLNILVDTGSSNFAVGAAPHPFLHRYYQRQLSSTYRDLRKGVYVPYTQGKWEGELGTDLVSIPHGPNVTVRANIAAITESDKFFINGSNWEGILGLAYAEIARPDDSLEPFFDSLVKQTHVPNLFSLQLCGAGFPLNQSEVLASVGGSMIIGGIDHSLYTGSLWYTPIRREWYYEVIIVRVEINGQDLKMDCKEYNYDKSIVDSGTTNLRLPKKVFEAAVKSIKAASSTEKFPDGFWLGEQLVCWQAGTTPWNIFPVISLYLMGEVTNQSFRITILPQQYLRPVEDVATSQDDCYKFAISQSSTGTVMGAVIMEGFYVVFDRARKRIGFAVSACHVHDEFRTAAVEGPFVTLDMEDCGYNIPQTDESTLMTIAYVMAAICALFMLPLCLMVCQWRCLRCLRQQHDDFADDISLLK

The assay addresses T1, BACE1 (Homo sapiens, UniProt P56817).
T1 construct: endogenous in cells; host or cells: HEK293 APP cells
As to the kind of experiment: Cellular Aβ-lowering assay (Abeta 40 AlphaLISA). The class given is cell-based. Conditions: HEK293 APP cells; 18-20 hrs incubation; Aβ 40 in culture supernatants by AlphaLISA; read-out: BACE1 cell act. Aβ40 IC50. As for the experimental part: Cellular Aβ-lowering assay:
The Abeta 40 AlphaLISA Assay can be used. The HEK293 APP cells were seeded in 96 well Microtiter plates in cell culture medium (Iscove's, plus 10% (v/v) fetal bovine serum, penicillin/streptomycin) to about 80% confluency and the compounds were added at a 3× concentration in ⅓ volume of culture medium (final DMSO concentration was kept at 1% v/v). After 18-20 hrs incubation at 37° C. and 5% CO2 in a humidified incubator, the culture supernatants were harvested for the determination of Aβ 40 concentrations using Perkin-Elmer Human Amyloid beta 1-40 (high specificity) Kit (Cat#AL275C).
In a Perkin-Elmer White Optiplate-384 (Cat#6007290), 2 ul culture supernatants were combined with 2 μl of a 10× AlphaLISA Anti-hAβAcceptor beads+Biotinylated Antibody Anti-Aβ1-40 Mix (50 μg/mL/5 nM). After 1 hour room temperature incubation, 16 μl of a 1.25× preparation of Streptavidin (SA) Donor beads (25 μg/mL) were added and incubated for 30 minutes in the Dark. Light Emission at 615 nm was then recorded using EnVision-Alpha Reader. Levels of Aβ 40 in the culture supernatants were calculated as percentage of maximum signal (cells treated with 1% DMSO without inhibitor). The IC50 values were calculated using the Excel XLfit software.
On the technique in general: Alpha assays give light when donor and acceptor beads are brought close together.
Turning to `Cc1cc(F)c([C@]2(C)C[C@@H](C(F)(F)F)OC(N)=N2)cc1-c1cccc(C#N)c1F` [Example 74, 5′-((4S,6S)-2-Amino-4-methyl-6-(trifluoromethyl)-5,6-dihydro-4H-1,3-oxazin-4-yl)-2,4′-difluoro-2′-methylbiphenyl-3-carbonitrile], the IC50 (as a rule, the concentration needed to halve the response being measured) came to 3560 nM.
Under `C[C@@]1(c2cc(-c3cncc(Cl)n3)ccc2F)C[C@@H](C(F)(F)F)OC(N)=N1` [Example 15, (4S,6S)-4-(5-(6-Chloropyrazin-2-yl)-2-fluorophenyl)-4-methyl-6-(trifluoromethyl)-5,6-dihydro-4H-1,3-oxazin-2-amine] stands 950 nM; under `C[C@@]1(c2cc(C#Cc3ccc(Cl)nc3)ccc2F)C[C@@H](C(F)(F)F)OC(N)=N1` [Example 76, (4S,6S)-4-[5-[2-(6-Chloropyridin-3-yl)ethynyl]-2-fluorophenyl]-4-methyl-6-(trifluoromethyl)-5,6-dihydro-1,3-oxazin-2-amine], 1920 nM; under `C[C@@]1(c2cc(-c3nc4ccc(Cl)cc4o3)ccc2F)C[C@@H](C(F)(F)F)OC(N)=N1` [Example 39, (4S,6S)-4-(5-(6-Chlorobenzo[d]oxazol-2-yl)-2-fluorophenyl)-4-methyl-6-(trifluoromethyl)-5,6-dihydro-4H-1,3-oxazin-2-amine], 530 nM.
Under `C[C@@]1(c2cc(NC(=O)c3ccc(Cl)cn3)cs2)C[C@@H](C(F)(F)F)OC(N)=N1` [Example 34, N-(5-((4S,6S)-2-amino-4-methyl-6-(trifluoromethyl)-5,6-dihydro-4H-1,3-oxazin-4-yl)thiophen-3-yl)-5-chloropicolinamide] stands 330 nM; under `C[C@@]1(c2cc(C#Cc3cncnc3)ccc2F)C[C@@H](C(F)(F)F)OC(N)=N1` [Example 50, (4S,6S)-4-(2-fluoro-5-(pyrimidin-5-ylethynyl)phenyl)-4-methyl-6-(trifluoromethyl)-5,6-dihydro-4H-1,3-oxazin-2-amine], 2660 nM.
The figure for `C[C@@]1(c2cc(CCc3ccc(C#N)cn3)ccc2F)C[C@@H](C(F)(F)F)OC(N)=N1` [Example 44, 6-(3-((4S,6S)-2-Amino-4-methyl-6-(trifluoromethyl)-5,6-dihydro-4H-1,3-oxazin-4-yl)-4-fluorophenethyl)nicotinonitrile] is 2020 nM; for `C[C@@]1(c2cc(C#Cc3ccc(C#N)cn3)ccc2F)C[C@@H](C(F)(F)F)OC(N)=N1` [Example 21, 6-((3-((4S,6S)-2-Amino-4-methyl-6-(trifluoromethyl)-5,6-dihydro-4H-1,3-oxazin-4-yl)-4-fluorophenyl)ethynyl)nicotinonitrile] it is 59 nM; for `Cc1cc(F)c([C@]2(C)C[C@@H](C(F)(F)F)OC(N)=N2)cc1C#Cc1nn(C(F)F)cc1Cl` [Example 71, (4S,6S)-4-(5-((4-Chloro-1-(difluoromethyl)-1H-pyrazol-3-yl)ethynyl)-2-fluoro-4-methylphenyl)-4-methyl-6-(trifluoromethyl)-5,6-dihydro-4H-1,3-oxazin-2-amine] it is 180 nM.
For the compound `C[C@@]1(c2cc(C#Cc3cncc(C#N)c3)ccc2F)C[C@@H](C(F)(F)F)OC(N)=N1` [Example 56, 5-[2-[3-[(4S,6S)-2-amino-4-methyl-6-(trifluoromethyl)-5,6-dihydro-1,3-oxazin-4-yl]-4-fluorophenyl]ethynyl]pyridine-3-carbonitrile], the IC50 worked out at 1650 nM.
Under `C[C@]1(c2cc(NC(=O)c3ccc(C#N)cn3)ccc2F)N=C(N)O[C@H](C(F)(F)F)[C@@H]1F` [Example 2, N-(3-((4R,5R,6S)-2-Amino-5-fluoro-4-methyl-6-(trifluoromethyl)-5,6-dihydro-4H-1,3-oxazin-4-yl)-4-fluorophenyl)-5-cyanopicolinamide] stands 10 nM; under `C[C@]1(c2cc(NC(=O)c3ccc(Cl)cn3)ccc2F)N=C(N)O[C@H](C(F)(F)F)[C@@H]1F` [Example 4, N-(3-((4R,5R,6S)-2-Amino-5-fluoro-4-methyl-6-(trifluoromethyl)-5,6-dihydro-4H-1,3-oxazin-4-yl)-4-fluorophenyl)-5-chloropicolinamide], 14 nM.
The figure for `NC1=N[C@](CF)(c2cc(C#Cc3cncc(Cl)c3)ccc2F)C[C@@H](C(F)(F)F)O1` [Example 61, (4S,6S)-4-(5-((5-Chloropyridin-3-yl)ethynyl)-2-fluorophenyl)-4-(fluoromethyl)-6-(trifluoromethyl)-5,6-dihydro-4H-1,3-oxazin-2-amine] is 3490 nM; for `C[C@@]1(c2cc(-c3cncnc3)ccc2F)C[C@@H](C(F)(F)F)OC(N)=N1` [Example 11, (4S,6S)-4-(2-fluoro-5-(pyrimidin-5-yl)phenyl)-4-methyl-6-(trifluoromethyl)-5,6-dihydro-4H-1,3-oxazin-2-amine] it is 420 nM.
The figure for `C[C@@]1(c2cccc(NC(=O)c3ccc(C#N)cn3)c2F)C[C@@H](C(F)(F)F)OC(N)=N1` [Example 37, N-(3-((4S,6S)-2-Amino-4-methyl-6-(trifluoromethyl)-5,6-dihydro-4H-1,3-oxazin-4-yl)-2-fluorophenyl)-5-cyanopicolinamide] is 140 nM; for `C[C@@]1(c2cc(-c3cccnc3F)c(F)cc2F)C[C@@H](C(F)(F)F)OC(N)=N1` [Example 18, (4S,6S)-4-(2,4-Difluoro-5-(2-fluoropyridin-3-yl)phenyl)-4-methyl-6-(trifluoro-methyl)-5,6-dihydro-4H-1,3-oxazin-2-amine] it is 120 nM.
As to `C[C@@]1(c2cc(C#Cc3ccc(Cl)cc3)ccc2F)C[C@@H](C(F)(F)F)OC(N)=N1` [Example 75, (4S,6S)-4-(5-((4-Chlorophenyl)ethynyl)-2-fluorophenyl)-4-methyl-6-(trifluoromethyl)-5,6-dihydro-4H-1,3-oxazin-2-amine], the IC50 worked out at 1430 nM.
The figure for `C[C@@]1(c2cc(C#Cc3ccnc(Cl)c3)ccc2F)C[C@@H](C(F)(F)F)OC(N)=N1` [Example 20, (4S,6S)-4-(5-((2-Chloropyridin-4-yl)ethynyl)-2-fluorophenyl)-4-methyl-6-(trifluoromethyl)-5,6-dihydro-4H-1,3-oxazin-2-amine] is 250 nM; for `C[C@@]1(c2cc(C#Cc3cnc(C#N)nc3)ccc2F)C[C@@H](C(F)(F)F)OC(N)=N1` [Example 54, 5-[2-[3-[(4S,6S)-2-amino-4-methyl-6-(trifluoromethyl)-5,6-dihydro-1,3-oxazin-4-yl]-4-fluorophenyl]ethynyl]pyrimidine-2-carbonitrile] it is 1360 nM.
Take `Cc1cc(C#Cc2ccc(F)c([C@]3(CF)C[C@@H](C(F)(F)F)OC(N)=N3)c2)sn1` [Example 64, (4S,6S)-4-(2-Fluoro-5-((3-methylisothiazol-5-yl)ethynyl)phenyl)-4-(fluoromethyl)-6-(trifluoromethyl)-5,6-dihydro-4H-1,3-oxazin-2-amine]: the IC50 is 270 nM.
Under `C[C@]1(c2cc(NC(=O)c3ccc(C#N)cn3)ccc2F)N=C(N)O[C@H](C(F)(F)F)[C@@H]1OCC(F)(F)F` [Example 8, N-(3-((4R,5R,6S)-2-Amino-4-methyl-5-(2,2,2-trifluoroethoxy)-6-(trifluoromethyl)-5,6-dihydro-4H-1,3-oxazin-4-yl)-4-fluorophenyl)-5-cyanopicolinamide] stands 2 nM; under `Cc1cc(F)c([C@]2(C)C[C@@H](C(F)(F)F)OC(N)=N2)cc1C#Cc1ncc(Cl)cn1` [Example 72, (4S,6S)-4-(5-((5-Chloropyrimidin-2-yl)ethynyl)-2-fluoro-4-methylphenyl)-4-methyl-6-(trifluoromethyl)-5,6-dihydro-4H-1,3-oxazin-2-amine], 110 nM.
The figure for `COc1cnc(C#Cc2ccc(F)c([C@]3(C)C[C@@H](C(F)(F)F)OC(N)=N3)c2)nc1` [Example 24, (4S,6S)-4-(2-Fluoro-5-((5-methoxypyrimidin-2-yl)ethynyl)phenyl)-4-methyl-6-(trifluoromethyl)-5,6-dihydro-4H-1,3-oxazin-2-amine] is 1670 nM; for `C[C@@]1(c2cc(-c3cncc(Cl)c3)ccc2F)C[C@@H](C(F)(F)F)OC(N)=N1` [Example 13, (4S,6S)-4-(5-(5-Chloropyridin-3-yl)-2-fluorophenyl)-4-methyl-6-(trifluoromethyl)-5,6-dihydro-4H-1,3-oxazin-2-amine] it is 150 nM.
